Laboratory results: patent US6723332B2 (dated 2004)

melting point | SMILES
> 285 °C (dec.) | Cc1cc(=O)n2c(C(=O)Nc3cc(F)ccc3F)c[nH]c2c1
198 to 210 °C | CN(C)CCOc1ccc(NC(=O)C2C=Nc3cccc(=O)n32)cc1 (stereo not drawn)
274 to 277 °C (dec.) | O=C(Nc1cccc(C(F)(F)F)c1F)C1C=Nc2cccc(=O)n21 (stereo not drawn)
280 to 285 °C (dec.) | Cc1ccc(F)c(NC(=O)C2C=Nc3cccc(=O)n32)c1 (stereo not drawn)
273 to 275 °C | O=C(Nc1ccc(OC(F)(F)F)cc1)C1C=Nc2cccc(=O)n21 (stereo not drawn)
> 216 °C (dec.) | CCOc1ccc(NC(=O)C2C=Nc3cccc(=O)n32)c(F)c1 (stereo not drawn)
